# From paper PMC12752627, “Discovery of a Potent and Selective TEAD Degrader with Durable Degradation Activity” (Advanced Science, 2025)
# Where two headings read alike, the source gives them in different places.
# Experiments:
# A172 cells [1] = assay: DIA proteomics in A172 cells; format: cell-based, Homo sapiens; conditions: 100 nM, 24 h
# Experimental: Cells were seeded in 6‐well plates at 1 × 10⁶ cells well^−1 and treated with 100 nM KG‐FP‐003 (n = 3). After 24 h incubation, cells were harvested, washed with ice‐cold PBS, and stored at −80 °C. Cell pellets were lysed in 4 volumes of lysis buffer (1% SDS, 1% protease inhibitor cocktail) followed by 3 min sonication on ice. After centrifugation (12 000 g, 10 min, 4 °C), supernatants were collected for BCA protein quantification. Proteins were reduced with 5 mM DTT (56 °C, 30 min), alkylated with 11 mM iodoacetamide (RT, dark, 15 min), and diluted with 200 mM TEAB to reduce urea concentration below 2 M. Trypsin digestion (1:50 enzyme‐to‐protein ratio) was performed at 37 °C overnight followed by additional 4 h digestion. Peptides were desalted using Strata‐X SPE columns. […] MS analysis was performed on a timsTOF Pro mass spectrometer in dia‐PASEF mode (ESI voltage: 1.75 kV; scan range: 300–1500 m z^−1). DIA data were processed using DIA‐NN (v1.8) against the Homo_sapiens_9606_SP_20 231 220.fasta database (20429 entries) with reversed decoys, using trypsin as the cleavage enzyme. Fixed modifications included N‐terminal methionine excision and carbamidomethylation of cysteine, with FDR set at <1%.
# BMF, CTGF expression = assay: RT-qPCR in MSTO-211H cells; format: cell-based
# Experimental: Cells were seeded in 6‐well plates at a density of 1 million cells per well. The following day, different concentrations of compounds were added, and cells were collected after 24 h. For wash‐out experiments, cells were pre‐treated with compounds at indicated concentrations for 6 h, then cells were washed three times with PBS, and an equal volume of complete medium without compounds was added and incubated for another 18 h.
# RNA was isolated and purified from the samples using the EZ‐10 Rotary Column Total RNA Isolation Kit (Sangon Biotech, B615012). After measuring the RNA concentration, 200 ng of purified RNA was used for genomic DNA removal and reverse transcription to cDNA with the HiScript III 1st Strand cDNA Synthesis Kit (+DNA wiper) (Vazyme, R312‐02). The resulting cDNA was then prepared into a reaction mix according to the ChamQ SYBR qPCR Mix (Vazyme, #q711‐02). Real‐time PCR analysis was performed using a QuantStudio 6 Pro real‐time PCR system (Thermo Fisher Scientific). Relative gene expression was calculated using the 2‐∆∆CT method. The primers used in this study were provided in the Supporting Information (Table S1, Supporting Information)
# ES2 cells = assay: Cell viability assay (CTG, 72 h) ES2; format: cell-based; conditions: Homo sapiens, ES-2, 72 h, 3-day compound treatment
# Experimental: (§1) Cells were seeded at a density of 1000 cells per well in 96‐well flat‐bottomed cell culture plates and cultured overnight at 37 °C with 5% CO2 to allow for cell attachment. The following day, different concentrations of compounds were added using an I‐DOT dispenser. After 72 h, 25 µL of CellTiter‐Meiluncell Luminescent Cell Viability Reagent (Meilunbio, #PWL111‐2) was added and incubated for 15 min at room temperature. Luminescence signals were then measured using an Envision plate reader (Revvity). Data were analyzed using GraphPad Prism 9.5 software.^[ [30] ^]
# [2] = tested on: CTGF, ANKRD1, NPPB, PTX3 expression; assay: RT-qPCR in A172 cells incl. washout; format: cell-based; conditions: 6 h treatment, 18 h
# SmBiT-CRBN+LgBiT-TEAD1 = biological target: T1, SmBiT-CRBN+LgBiT-TEAD1 (Homo sapiens, UniProt P28347+Q96SW2); assay: NanoBiT recruitment assay (ternary complex formation) in HEK293T cells; format: cell-based; conditions: 3 h
# T1 construct: ternary complex formation between CRBN (41‐442) and TEAD1‐YBD (208‐424) in HEK293T cells; expressed in transfected cells; host or cells: HEK293T (transient co-transfection)
# Experimental: CRBN was cloned into the SmBiT Flexi vector pFN35K (Promega), while TEAD1 was cloned into the Promega LgBiT Flexi vector pFN33K (Promega). A total of 8 µg of plasmid DNA, consisting of 2 µg of SmBiT‐CRBN plasmid and 6 µg of LgBiT‐TEAD1 plasmid, was mixed with 24 µL of the liposome transfection reagent Lipo2000 (Meilunbio, #MA0672), added to 300 µL of Opti‐MEM Reduced Serum medium (Meilunbio, #PWL042), and incubated for 20 min at room temperature. The resulting mixture was then added to 3 mL of HEK293T cell suspension at a density of 1 × 10^6 cells mL^−1 in DMEM medium containing 1% FBS, mixed thoroughly, and 18.4 µL of the mixture was transferred to each well of a white 384‐well plate (Corning, #3570), followed by incubation for 24 h. Subsequently, 2.5 µL of MLN4924 (MCE, #HY‐70062) was added to reach a final concentration of 1 µM, and the cells were incubated for an additional 4 h. Next, 3 µL of compound KG‐FP‐003 at the indicated concentrations was added, and incubation continued for 3 more hours. Afterward, a mixture of Nano‐Glo Live Cell Substrate and Nano‐Glo LCS Dilution Buffer (Promega, #N2011) was added to the 384‐well plates at 6 µL per well and incubated for 20 min at room temperature. Finally, the luminescence signal was measured using an Envision plate reader (Revvity), and the data were analyzed using GraphPad Prism 9.5 software.
# [3] = tested on: MSTO-211H CRBN knockout cells; assay: Cell viability assay, CRBN-knockout MSTO-211H; format: cell-based; conditions: Homo sapiens, Figure 3D, read-out: MSTO-211H: CRBN KO IC50
# Experimental: as §1
# A172 cells [4] = assay: Cell viability assay (CTG, 72 h) A172; format: cell-based; conditions: Homo sapiens, A 172, 72 h, 3-day compound treatment
# Experimental: as §1
# KLE cells = assay: Cell viability assay (CTG, 72 h) KLE; format: cell-based; conditions: Homo sapiens, KLE, 72 h, 3-day compound treatment
# Experimental: as §1
# MSTO-211H cells = assay: Cell viability assay (CTG, 72 h) MSTO-211H; format: cell-based; conditions: Homo sapiens
# Experimental: as §1
# T1 sequence (Q96SW2 41-442): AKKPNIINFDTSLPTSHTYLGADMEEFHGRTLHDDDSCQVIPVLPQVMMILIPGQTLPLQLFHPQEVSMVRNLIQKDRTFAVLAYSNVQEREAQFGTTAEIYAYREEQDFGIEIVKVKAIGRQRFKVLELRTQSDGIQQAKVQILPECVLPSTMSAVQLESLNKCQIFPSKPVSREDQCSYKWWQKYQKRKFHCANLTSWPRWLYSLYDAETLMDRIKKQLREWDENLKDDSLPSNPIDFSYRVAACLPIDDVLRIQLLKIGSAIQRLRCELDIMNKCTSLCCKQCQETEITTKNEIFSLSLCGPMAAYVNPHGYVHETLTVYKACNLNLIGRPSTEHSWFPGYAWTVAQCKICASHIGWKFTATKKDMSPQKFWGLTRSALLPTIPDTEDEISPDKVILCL
# T1 sequence (P28347 208-424): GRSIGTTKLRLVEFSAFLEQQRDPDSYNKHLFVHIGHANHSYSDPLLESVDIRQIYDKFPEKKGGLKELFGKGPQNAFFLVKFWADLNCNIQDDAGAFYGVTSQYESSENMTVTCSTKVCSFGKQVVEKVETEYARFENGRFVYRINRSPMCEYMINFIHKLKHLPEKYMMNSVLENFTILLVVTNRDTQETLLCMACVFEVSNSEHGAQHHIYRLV
structure (smiles),measurement,setting,value
CNC(=O)c1cc2c(c(F)c1-c1c(Cl)c(F)cc3c1C[C@@](CN[C@H]1CC[C@H](C(=O)N4CCC(CC5CCN(C(=O)COc6ccc(N7CCC(=O)NC7=O)c(C)c6)CC5)CC4)CC1)(c1ccccc1)O3)[C@@H](O)[C@@H](C)C2 [KG-FP-003],Proteome-wide selectivity,A172 cells [1],significantly and selectively downregulated TEAD1 protein levels
same,Expression of TEAD target gene CTGF (qPCR),"BMF, CTGF expression",downregulation
same,Expression of pro-apoptotic gene BMF (qPCR),"BMF, CTGF expression",dramatic upregulation
same,IC50,ES2 cells,202 ± 14 nM
same,Repression of TEAD target genes after washout (qPCR),[2],sustained and pronounced repression
same,EC50,SmBiT-CRBN+LgBiT-TEAD1,8 ± 4 nM
same,IC50,[3],543 ± 50 nM
same,IC50,A172 cells [4],7 ± 6 nM
same,IC50,KLE cells,59 ± 34 nM
same,IC50,"MSTO-211H cells; 72 h, 3-day antiproliferation, Figure 3C, read-out: IC50 (nM ± SD), MSTO-211H",47 ± 5 nM
same,IC50,"MSTO-211H cells; wild-type, Figure 3D, read-out: MSTO-211H: WT IC50",47 ± 5 nM
